Holding throughout (assay type): functional
Experiment [1] has as its system Rattus norvegicus. The experiment in a line: Antiparkinsonian activity in 6-hydroxydopamine lesioned Wistar rat assessed as AUC activity by measuring contralateral rotations at 63.4 umol/kg, po measured every 10 mins for 240 mins relative to L-DOPA.
In experiment [2] the test system is Rattus norvegicus. The experiment can be described thus: Antiparkinsonian activity in 6-hydroxydopamine lesioned Wistar rat assessed as peak activity by measuring contralateral rotations at 63.4 umol/kg, po measured every 10 mins for 240 mins relative to L-DOPA.
For experiment [3], the system named is Rattus norvegicus. The experiment can be described thus: Antiparkinsonian activity in 6-hydroxydopamine lesioned Wistar rat assessed as duration of activity at 63.4 umol/kg, po measured every 10 mins for 240 mins relative to L-DOPA.
Experiment [4] relates to Rattus norvegicus. The experiment in a line: Antiparkinsonian activity in 6-hydroxydopamine lesioned Wistar rat assessed as duration of activity at 63.4 umol/kg, ip measured every 10 mins for 240 mins relative to L-DOPA.
In experiment [5] the test system is Rattus norvegicus. The experiment in a line: Antiparkinsonian activity in 6-hydroxydopamine lesioned Wistar rat assessed as peak activity by measuring contralateral rotations at 63.4 umol/kg, ip measured every 10 mins for 240 mins relative to L-DOPA.
Experiment [6] has as its system Rattus norvegicus. The experiment in a line: Antiparkinsonian activity in 6-hydroxydopamine lesioned Wistar rat assessed as AUC activity by measuring contralateral rotations at 63.4 umol/kg, ip measured every 10 mins for 240 mins relative to L-DOPA.

Square brackets hold non-standard residues; d marks the D form. Peptide text beside a SMILES is read from it. * marks the point of attachment. Dopa = N[C@@H](Cc1ccc(O)c(O)c1)C(=O)O; αMeF = C[C@](N)(Cc1ccccc1)C(=O)O; Cha = N[C@@H](CC1CCCCC1)C(=O)O; Ac6c = NC1(C(=O)O)CCCCC1; Ac5c = NC1(C(=O)O)CCCC1; Aib = CC(C)(N)C(=O)O; OcHex = C1CCC(O*)CC1; OBn = c1ccc(CO*)cc1; OiPr = CC(C)O*

For `CC(C)CCOC(=O)[C@H](Cc1ccc(O)c(O)c1)NC(=O)C(C)(C)N.Cl`, the results for the Activity in the experiment with Rattus norvegicus [1], in the experiment with Rattus norvegicus [2] and in the experiment with Rattus norvegicus [3] were 79%, 59% and 49%, respectively.

For `COC(=O)[C@H](Cc1ccc(OC(C)=O)c(OC(C)=O)c1)NC(=O)C(C)(C)N.Cl`, the results for the Activity in the experiment with Rattus norvegicus [1], with Rattus norvegicus [2] and in the experiment with Rattus norvegicus [3] were 55%, 69% and 73%, respectively.

Regarding `COC(=O)[C@H](Cc1ccc(OC(C)=O)c(OC(C)=O)c1)NC(=O)C1(N)CCCCC1.Cl`, the Activity was 42% in the experiment on Rattus norvegicus [1], 55% in the experiment on Rattus norvegicus [2] and 42% with Rattus norvegicus [3].

On to `COC(=O)[C@H](Cc1ccc(OC(C)=O)c(OC(C)=O)c1)NC(=O)C1(N)CCCC1.Cl`, for which the Activity in the experiment with Rattus norvegicus [1] is given as 39%; with Rattus norvegicus [2], 61%; in the experiment on Rattus norvegicus [3], 44%.

In the case of `COC(=O)[C@H](Cc1ccc(OC(C)=O)c(OC(C)=O)c1)NC(=O)[C@@H](N)CC1CCCCC1.Cl`, the Activity in the experiment with Rattus norvegicus [4] was 27%; with Rattus norvegicus [5] it was 51%; with Rattus norvegicus [6], 32%.

Take `CC(=O)Oc1ccc(C[C@H](NC(=O)C(C)(C)N)C(=O)O)cc1OC(C)=O.Cl`: the Activity is reported as 42% with Rattus norvegicus [1], 66% in the experiment with Rattus norvegicus [2] and 45% in the experiment with Rattus norvegicus [3].

With `COC(=O)[C@H](Cc1ccc(O)c(O)c1)NC(=O)C1(N)CCCC1.Cl` (H-[Ac5c]-[Dopa]-OMe), the Activity in the experiment on Rattus norvegicus [1] is 78%; with Rattus norvegicus [2] it was 105%; with Rattus norvegicus [3], 97%.

On to `COC(=O)[C@H](Cc1ccc(O)c(O)c1)NC(=O)C1(N)CCCCC1.Cl` (H-[Ac6c]-[Dopa]-OMe), for which the Activity with Rattus norvegicus [1] is 88%; in the experiment with Rattus norvegicus [2], 107%; in the experiment on Rattus norvegicus [3], 84%.

Regarding `CC(C)(N)C(=O)N[C@@H](Cc1ccc(O)c(O)c1)C(=O)OCc1ccccc1.Cl` (H-[Aib]-[Dopa]-OBn), the Activity worked out at 46% with Rattus norvegicus [1], 71% in the experiment with Rattus norvegicus [2] and 38% with Rattus norvegicus [3].

`CC(C)(N)C(=O)N[C@@H](Cc1ccc(O)c(O)c1)C(=O)O.Cl` (H-[Aib]-[Dopa]-OH): the values for the Activity in the experiment on Rattus norvegicus [1], in the experiment with Rattus norvegicus [2] and with Rattus norvegicus [3] were 65%, 80% and 57%, respectively.

With `COC(=O)[C@H](Cc1ccc(O)c(O)c1)NC(=O)C(C)(C)N.Cl` (H-[Aib]-[Dopa]-OMe), the Activity turned out to be 63% in the experiment with Rattus norvegicus [4], 77% in the experiment on Rattus norvegicus [5] and 69% in the experiment with Rattus norvegicus [6].

With `CC(C)(N)C(=O)N[C@@H](Cc1ccc(O)c(O)c1)C(=O)OC1CCCCC1.Cl` (H-[Aib]-[Dopa]-OcHex), the Activity in the experiment with Rattus norvegicus [1] was 105%; in the experiment on Rattus norvegicus [2], 82%; in the experiment with Rattus norvegicus [3], 70%.

On to `CC(C)OC(=O)[C@H](Cc1ccc(O)c(O)c1)NC(=O)C(C)(C)N.Cl` (H-[Aib]-[Dopa]-OiPr), for which the Activity with Rattus norvegicus [1] is recorded as 116%; in the experiment with Rattus norvegicus [2], 149%; with Rattus norvegicus [3], 72%.

Regarding `COC(=O)[C@H](Cc1ccc(O)c(O)c1)NC(=O)[C@@H](N)CC1CCCCC1.Cl` (H-[Cha]-[Dopa]-OMe), the Activity stood at 40% in the experiment with Rattus norvegicus [1], 53% with Rattus norvegicus [2] and 45% in the experiment on Rattus norvegicus [3].

Take `C[C@](N)(Cc1ccccc1)C(=O)N[C@@H](Cc1ccc(O)c(O)c1)C(=O)O.Cl` (H-[αMeF]-[Dopa]-OH): the results for the Activity with Rattus norvegicus [1], in the experiment with Rattus norvegicus [2] and in the experiment with Rattus norvegicus [3] were 26%, 37% and 40%, respectively.

The values are drawn from ChEMBL document CHEMBL2424655, “Design, synthesis and biological evaluation of peptide derivatives of L-dopa as anti-parkinsonian agents” (2013).
